# From PMC7862291, “Full-length in meso structure and mechanism of rat kynurenine 3-monooxygenase inhibition” (Communications Biology, 2021)
# Values joined by “and” are separate entries in the source; they are usually repeats but may differ in a detail not shown here. Equal entries are not always repeated.
# Key:
# [1] = biological target: T1, hKMO (Homo sapiens, UniProt O15229); assay: Human KMO enzyme (cell-free) assay, NADPH consumption by absorbance; assay type: biochemical
# T1 construct: purchased Origene
# T1 sequence (O15229 whole entry): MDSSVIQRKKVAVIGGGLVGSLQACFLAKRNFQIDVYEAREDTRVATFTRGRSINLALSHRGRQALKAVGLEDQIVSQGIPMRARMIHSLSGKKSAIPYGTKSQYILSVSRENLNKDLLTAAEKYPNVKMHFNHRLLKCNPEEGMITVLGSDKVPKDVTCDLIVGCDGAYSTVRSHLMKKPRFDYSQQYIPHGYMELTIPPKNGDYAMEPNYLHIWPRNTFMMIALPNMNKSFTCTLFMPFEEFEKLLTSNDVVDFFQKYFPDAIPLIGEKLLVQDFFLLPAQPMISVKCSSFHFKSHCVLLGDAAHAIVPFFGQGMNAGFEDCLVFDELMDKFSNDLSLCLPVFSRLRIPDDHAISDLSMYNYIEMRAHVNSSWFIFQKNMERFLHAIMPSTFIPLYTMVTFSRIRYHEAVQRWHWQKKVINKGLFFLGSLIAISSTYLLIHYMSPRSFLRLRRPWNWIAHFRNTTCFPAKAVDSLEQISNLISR
# Method in brief: (§1)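 Recombinant human KMO or purified full-length rat KMO, pre-incubated 5 min with compound in HEPES buffer pH ~7.9 with MgCl2, EGTA, DTT, Tween20. Substrate mix of 2.4 mM kynurenine and 0.6 mM NADPH (solution concentrations) added; 90 min at 30 °C. Stopped with maleimide, then WST-9/1-methoxy-PMS colour read-out.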
# [2] = biological target: T2, Rat KMO (Rattus norvegicus, UniProt O88867); assay: Rat KMO enzyme (cell-free) assay, NADPH consumption by absorbance; assay type: biochemical
# T2 construct: The GST-tagged full-length KMO (1-478) baculovirus vector contained a thrombin cleavage site; GST (thrombin cleavage site between GST and KMO) (N, cleaved yes); made in house; host or cells: Spodoptera frugiperda (Sf9), baculovirus
# T2 sequence (O88867 whole entry): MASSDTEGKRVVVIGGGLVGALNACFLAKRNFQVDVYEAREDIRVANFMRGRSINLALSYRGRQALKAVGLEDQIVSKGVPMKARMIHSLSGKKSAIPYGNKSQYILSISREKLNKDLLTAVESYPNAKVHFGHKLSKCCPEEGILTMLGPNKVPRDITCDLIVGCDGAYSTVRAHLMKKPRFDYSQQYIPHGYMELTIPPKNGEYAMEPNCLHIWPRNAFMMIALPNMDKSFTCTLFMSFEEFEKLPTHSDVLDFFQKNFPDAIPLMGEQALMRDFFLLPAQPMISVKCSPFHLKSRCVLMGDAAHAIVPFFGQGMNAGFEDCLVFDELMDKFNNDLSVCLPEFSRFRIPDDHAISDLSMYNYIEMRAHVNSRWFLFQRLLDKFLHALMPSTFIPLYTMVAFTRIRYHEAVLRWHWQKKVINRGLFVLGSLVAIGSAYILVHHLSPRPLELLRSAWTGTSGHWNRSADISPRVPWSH
# Method in brief: as §1
# [3] = biological target: T3, HEK293 cells stably expressing human KMO (Homo sapiens, UniProt O15229); assay: Cell-based human KMO inhibition assay (LC/MS of 3-hydroxykynurenine)
# T3 construct: expressed in transfected cells
# T3 sequence (O15229 whole entry): as the sequence (O15229 whole entry) above
# Method in brief: (§2)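 HEK293 lines stably expressing human or rat KMO, pre-incubated ~30 min at 37 °C with compound (final 0–30 μM, 0.3% DMSO) in HBSS/20 mM HEPES. Then 2 h at 37 °C with 0.2 mM kynurenine (solution concentration). 3-Hydroxykynurenine in cell extracts quantified by LC-MS/MS, positive ESI.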
# [4] = biological target: T4, HEK293 cells stably expressing rat KMO (Rattus norvegicus, UniProt O88867); assay: Cell-based rat KMO inhibition assay (LC/MS of 3-hydroxykynurenine)
# T4 construct: expressed in transfected cells
# T4 sequence (O88867 whole entry): as the sequence (O88867 whole entry) above
# Method in brief: as §2
smiles,measurement,setting,value
Cc1cnn(-c2cccc(C(=O)O)c2)c1-c1ccc(Cl)c(F)c1 [Compound 2],IC50,"[1]; cell-free enzyme assay, high kynurenine, read-out: Human KMO IC50",7.1 nM
same,"inhibition rate, Hs-KMO cell-free assay (Figure 1A source data)","[1]; conc 0.0003 μM, duplicates",0.420% and -1.736%
same,"inhibition rate, Hs-KMO cell-free assay (Figure 1A source data)","[1]; conc 0.001 μM, duplicates",9.914%
same,inhibition at 0.001 µM,"[1]; conc 0.001 μM, duplicates, read-out: inhibition rate, Hs-KMO cell-free assay (Figure 1A source data)",12.1%
same,"inhibition rate, Hs-KMO cell-free assay (Figure 1A source data)","[1]; conc 0.003 μM, duplicates",25.289%
same,inhibition at 0.003 µM,"[1]; conc 0.003 μM, duplicates, read-out: inhibition rate, Hs-KMO cell-free assay (Figure 1A source data)",27.2%
same,"inhibition rate, Hs-KMO cell-free assay (Figure 1A source data)","[1]; conc 0.01 μM, duplicates",59.651%
same,inhibition at 0.01 µM,"[1]; conc 0.01 μM, duplicates, read-out: inhibition rate, Hs-KMO cell-free assay (Figure 1A source data)",57.4%
same,"inhibition rate, Hs-KMO cell-free assay (Figure 1A source data)","[1]; conc 0.03 μM, duplicates",87.349%
same,inhibition at 0.03 µM,"[1]; conc 0.03 μM, duplicates, read-out: inhibition rate, Hs-KMO cell-free assay (Figure 1A source data)",85.6%
same,"inhibition rate, Hs-KMO cell-free assay (Figure 1A source data)","[1]; conc 0.1 μM, duplicates",95.022%
same,inhibition at 0.1 µM,"[1]; conc 0.1 μM, duplicates, read-out: inhibition rate, Hs-KMO cell-free assay (Figure 1A source data)",96.5%
same,"inhibition rate, Hs-KMO cell-free assay (Figure 1A source data)","[1]; conc 0.3 μM, duplicates",105.860%
same,inhibition at 0.3 µM,"[1]; conc 0.3 μM, duplicates, read-out: inhibition rate, Hs-KMO cell-free assay (Figure 1A source data)",100%
same,"inhibition rate, Hs-KMO cell-free assay (Figure 1A source data)","[1]; conc 1 μM, duplicates",100.287%
same,inhibition at 1 µM,"[1]; conc 1 μM, duplicates, read-out: inhibition rate, Hs-KMO cell-free assay (Figure 1A source data)",102%
same,IC50,"[2]; cell-free enzyme assay, high kynurenine",150 nM
same,"inhibition rate, Rat-KMO cell-free assay (Figure 1B source data)","[2]; conc 0.03 μM, duplicates",20.744%
same,inhibition at 0.03 µM,"[2]; conc 0.03 μM, duplicates, read-out: inhibition rate, Rat-KMO cell-free assay (Figure 1B source data)",18%
same,"inhibition rate, Rat-KMO cell-free assay (Figure 1B source data)","[2]; conc 0.1 μM, duplicates",47.122%
same,inhibition at 0.1 µM,"[2]; conc 0.1 μM, duplicates, read-out: inhibition rate, Rat-KMO cell-free assay (Figure 1B source data)",46%
same,"inhibition rate, Rat-KMO cell-free assay (Figure 1B source data)","[2]; conc 0.3 μM, duplicates",63.717%
same,inhibition at 0.3 µM,"[2]; conc 0.3 μM, duplicates, read-out: inhibition rate, Rat-KMO cell-free assay (Figure 1B source data)",62.8%
same,"inhibition rate, Rat-KMO cell-free assay (Figure 1B source data)","[2]; conc 1 μM, duplicates",81.108%
same,inhibition at 1 µM,"[2]; conc 1 μM, duplicates, read-out: inhibition rate, Rat-KMO cell-free assay (Figure 1B source data)",84.3%
same,"inhibition rate, Rat-KMO cell-free assay (Figure 1B source data)","[2]; conc 3 μM, duplicates",90.360%
same,inhibition at 3 µM,"[2]; conc 3 μM, duplicates, read-out: inhibition rate, Rat-KMO cell-free assay (Figure 1B source data)",87.2%
same,"inhibition rate, Rat-KMO cell-free assay (Figure 1B source data)","[2]; conc 10 μM, duplicates",90.175%
same,inhibition at 10 µM,"[2]; conc 10 μM, duplicates, read-out: inhibition rate, Rat-KMO cell-free assay (Figure 1B source data)",91.4%
same,"inhibition rate, Rat-KMO cell-free assay (Figure 1B source data)","[2]; conc 30 μM, duplicates",94.310%
same,inhibition at 30 µM,"[2]; conc 30 μM, duplicates, read-out: inhibition rate, Rat-KMO cell-free assay (Figure 1B source data)",91.7%
same,"inhibition rate, Rat-KMO cell-free assay (Figure 1B source data)","[2]; conc 100 μM, duplicates",101.150%
same,inhibition at 100 µM,"[2]; conc 100 μM, duplicates, read-out: inhibition rate, Rat-KMO cell-free assay (Figure 1B source data)",89.9%
same,inhibition at 0.03 µM,"[3]; HEK293, conc 0.03 μM, duplicates, read-out: inhibition rate, Hs-KMO cellular assay (Figure 1C source data)",51.3%
same,inhibition at 0.1 µM,"[3]; HEK293, conc 0.1 μM, duplicates, read-out: inhibition rate, Hs-KMO cellular assay (Figure 1C source data)",76.7%
same,inhibition at 0.3 µM,"[3]; HEK293, conc 0.3 μM, duplicates, read-out: inhibition rate, Hs-KMO cellular assay (Figure 1C source data)",92.2%
same,inhibition at 1 µM,"[3]; HEK293, conc 1 μM, duplicates, read-out: inhibition rate, Hs-KMO cellular assay (Figure 1C source data)",102%
same,inhibition at 3 µM,"[3]; HEK293, conc 3 μM, duplicates, read-out: inhibition rate, Hs-KMO cellular assay (Figure 1C source data)",104%
same,inhibition at 10 µM,"[3]; HEK293, conc 10 μM, duplicates, read-out: inhibition rate, Hs-KMO cellular assay (Figure 1C source data)",104%
same,inhibition at 30 µM,"[3]; HEK293, conc 30 μM, duplicates, read-out: inhibition rate, Hs-KMO cellular assay (Figure 1C source data)",105%
same,IC50,"[3]; HEK293 cells expressing human KMO, LC/MS, read-out: Human cell-based assay IC50",30 nM
same,"inhibition rate, Hs-KMO cellular assay (Figure 1C source data)","[3]; conc 0.03 μM, duplicates",49.094%
same,"inhibition rate, Hs-KMO cellular assay (Figure 1C source data)","[3]; conc 0.1 μM, duplicates",80.095%
same,"inhibition rate, Hs-KMO cellular assay (Figure 1C source data)","[3]; conc 0.3 μM, duplicates",94.377%
same,"inhibition rate, Hs-KMO cellular assay (Figure 1C source data)","[3]; conc 1 μM, duplicates",98.875%
same,"inhibition rate, Hs-KMO cellular assay (Figure 1C source data)","[3]; conc 3 μM, duplicates",103.175%
same,"inhibition rate, Hs-KMO cellular assay (Figure 1C source data)","[3]; conc 10 μM, duplicates",102.973%
same,"inhibition rate, Hs-KMO cellular assay (Figure 1C source data)","[3]; conc 30 μM, duplicates",104.572%
same,inhibition at 0.1 µM,"[4]; HEK293, conc 0.1 μM, duplicates, read-out: inhibition rate, Rat-KMO cellular assay (Figure 1D source data)",6.06%
same,inhibition at 0.3 µM,"[4]; HEK293, conc 0.3 μM, duplicates, read-out: inhibition rate, Rat-KMO cellular assay (Figure 1D source data)",28.6%
same,inhibition at 1 µM,"[4]; HEK293, conc 1 μM, duplicates, read-out: inhibition rate, Rat-KMO cellular assay (Figure 1D source data)",29.2%
same,inhibition at 3 µM,"[4]; HEK293, conc 3 μM, duplicates, read-out: inhibition rate, Rat-KMO cellular assay (Figure 1D source data)",55.7%
same,inhibition at 10 µM,"[4]; HEK293, conc 10 μM, duplicates, read-out: inhibition rate, Rat-KMO cellular assay (Figure 1D source data)",81.2%
same,inhibition at 30 µM,"[4]; HEK293, conc 30 μM, duplicates, read-out: inhibition rate, Rat-KMO cellular assay (Figure 1D source data)",94.7%
same,IC50,"[4]; HEK293 cells expressing rat KMO, LC/MS",1900 nM
same,"inhibition rate, Rat-KMO cellular assay (Figure 1D source data)","[4]; conc 0.1 μM, duplicates",5.770%
same,"inhibition rate, Rat-KMO cellular assay (Figure 1D source data)","[4]; conc 0.3 μM, duplicates",28.560%
same,"inhibition rate, Rat-KMO cellular assay (Figure 1D source data)","[4]; conc 1 μM, duplicates",33.805%
same,"inhibition rate, Rat-KMO cellular assay (Figure 1D source data)","[4]; conc 3 μM, duplicates",50.255%
same,"inhibition rate, Rat-KMO cellular assay (Figure 1D source data)","[4]; conc 10 μM, duplicates",82.819%
same,"inhibition rate, Rat-KMO cellular assay (Figure 1D source data)","[4]; conc 30 μM, duplicates",94.698%
